The values that follow come from paper PMC10511816 (The Journal of Biological Chemistry, 2023).

Data set [1] has as its system mouse model of hyperuricemia. Nature of the data set: mouse model of hyperuricemia (potassium oxonate), plasma purines by HPLC. In kind it is in vivo. The following applies: for plasma hypoxanthine levels vs control / plasma xanthine levels vs control: 1 h. As for the experimental part:
To compare the inhibitory effect of allopurinol and oxypurinol on uric acid production, mice were treated with oxonate to inhibit uricase and induce hyperuricemia.
Figure 2 Comparison of the effects of allopurinol and oxypurinol in a model of hyperuricemia. […] Statistical analysis was performed using one-way ANOVA and Turkey’s multiple comparison test. ∗p < 0.05, ∗∗p < 0.01, ∗∗∗∗p < 0.0001.
Six-week-old specific-pathogen free-grade male Institute of Cancer Research mice were purchased from Japan SLC. All animal experiments were performed according to the protocol approved by the Animal Care and Ethics Committee of Tokyo University of Pharmacy and Life Sciences (Permit No. P21-80). Mice were housed under conditions of 22 to 24 °C, 40 to 60% humidity, and a 12-h light/12-h dark cycle. Food and water were administered ad libitum.
Oxypurinol or allopurinol was suspended in 0.5% carboxymethyl cellulose and administered intraperitoneally at 3 mg/kg or 10 mg/kg (n = 11). The control group received 0.5% carboxymethyl cellulose (n = 5). Immediately after intraperitoneal administration, potassium oxonate was injected subcutaneously at 300 mg/kg. One hour after administration, mice were sacrificed by cervical dislocation, and blood was collected with heparin. […] Statistical analysis was performed using GraphPad Prism 9 software (www.graphpad.com).
Purine concentrations were measured using a Shimadzu HPLC system consisting of the CBM-20A controller, LC-20AD pump, SIL-20AC autosampler (set at 4 °C), CTO-20A column oven (set at 40 °C), and SPD-M20A diode array detector. Peak analysis was performed using LC solution software. A SUPELCOSIL LC-18-T column (25 cm × 4.6 mm id 5 μm particle size) was used with the SUPELCOSIL LC-18-T Supelguard guard column separation of purines, using a flow rate was 0.8 ml/min and 10 or 20 μl samples. The mobile phase used was A: 0.1 M KPB and 4 mM tetrabutylammonium hydrogen sulfate (pH 5.5), B: 70% buffer A and 30% methanol (v/v). Gradient conditions were 0 min (0% B), 2 min (0% B), 4 min (30% B), 12 min (60% B), 15 min (100% B), 19 min (100% B), 20 min (0% B), and 30 min (0% B). Detection wavelengths were 254 nm, 268 nm, and 295 nm. The data were analyzed using LabSolutions Ver. 5.97 SP1. All purines were identified by retention time and quantified using an external standard.

The target of the next data set is XDH (Bos taurus, UniProt P80457). The following applies: 2 μM hypoxanthine, 500 μM β-NAD+, 6 nM XDH, pH 8.5, 25 °C. As for the experimental part: The rate of NAD^+ conversion to NADH was measured at A340 nm.
(§1) Bovine milk was obtained from the animal farm of the Nippon Veterinary and Life Science University. […] The dehydrogenase form of the enzyme (XDH) was obtained by reacting XO immediately upon purification with 5 mM DTT at pH 8.5, 25 °C for 1 h. XO and XDH assays were carried out at 25 °C under aerobic conditions. […] A total of 500 μM β-NAD^+ was added to the same reaction solution for XDH activity. Physiological conditions such as pH 7.4 (0.1 M potassium phosphate buffer (KPB), 0.2 mM EDTA) and the addition of 50 μM β-NADH were also used. The activity was measured by following 295 nm and 340 nm on a UV-1800 or UV1900i spectrophotometer. […] In addition, the enzyme reaction solution was quenched with perchloric acid and neutralized with K2CO3, with products analyzed using HPLC as described below. Spectrophotometric data were analyzed using UV-Probe software Ver. 2.70 or LabSolutions UV-Vis Ver. […] Kinetic parameters were determined from nonlinear curve fits of raw data using GraphPad Prism 9 software.

For data set [2], the target named is T1, Purine nucleoside phosphorylase (PNP) (Homo sapiens, UniProt P00491).
T1 construct: purchased Sigma-Aldrich; host or cells: E. coli
T1 sequence (P00491 1-289): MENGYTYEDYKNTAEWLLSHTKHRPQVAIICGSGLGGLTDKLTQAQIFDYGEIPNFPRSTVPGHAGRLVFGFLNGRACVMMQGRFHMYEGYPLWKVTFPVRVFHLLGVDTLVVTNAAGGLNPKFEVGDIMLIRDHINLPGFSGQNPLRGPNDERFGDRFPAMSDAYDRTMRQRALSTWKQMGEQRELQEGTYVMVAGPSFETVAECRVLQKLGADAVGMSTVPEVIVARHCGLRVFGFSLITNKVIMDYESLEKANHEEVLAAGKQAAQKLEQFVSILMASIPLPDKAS
Also noted: method as in PMID 5653179, PMID 121041. The settings on record: cited from earlier work.

In a further data set the target is XO (Bos taurus, UniProt P80457). Kind of data set: initial-velocity steady-state kinetics of XO, O2 as electron acceptor. In kind it is biochemical, bovine. Also noted: Bovine milk was obtained from the animal farm of the Nippon Veterinary and Life Science University; from tissue; host or cells: bovine milk. As for the experimental part:
as §1
A295 indicates the concentration of uric acid yielded by XOR. […] A295 indicates the concentration of uric acid yielded by XOR. Figure S2. The XOR inhibition mode of oxypurinol.A–G, Lineweaver-Burk plots were generated to visualize data and estimated the inhibition patterns. Data are representative of least two independent experiments. […] Figure S3. […] B, mode of inhibition of oxypurinol on the inosine degradation reaction of PNP. […] 0, 250, 375, 500, 750 and 1000 μM of oxypurinol were used. […] The rate of NAD^+ conversion to NADH was measured at A340 nm.

Setting [3] is: 3 mg/kg intraperitoneal, 1 h after administration, oxonate-treated mice.
The mark [4] stands for this setting: one hour after 3 mg/kg allopurinol intraperitoneal.

Chain of XO (P80457 whole entry): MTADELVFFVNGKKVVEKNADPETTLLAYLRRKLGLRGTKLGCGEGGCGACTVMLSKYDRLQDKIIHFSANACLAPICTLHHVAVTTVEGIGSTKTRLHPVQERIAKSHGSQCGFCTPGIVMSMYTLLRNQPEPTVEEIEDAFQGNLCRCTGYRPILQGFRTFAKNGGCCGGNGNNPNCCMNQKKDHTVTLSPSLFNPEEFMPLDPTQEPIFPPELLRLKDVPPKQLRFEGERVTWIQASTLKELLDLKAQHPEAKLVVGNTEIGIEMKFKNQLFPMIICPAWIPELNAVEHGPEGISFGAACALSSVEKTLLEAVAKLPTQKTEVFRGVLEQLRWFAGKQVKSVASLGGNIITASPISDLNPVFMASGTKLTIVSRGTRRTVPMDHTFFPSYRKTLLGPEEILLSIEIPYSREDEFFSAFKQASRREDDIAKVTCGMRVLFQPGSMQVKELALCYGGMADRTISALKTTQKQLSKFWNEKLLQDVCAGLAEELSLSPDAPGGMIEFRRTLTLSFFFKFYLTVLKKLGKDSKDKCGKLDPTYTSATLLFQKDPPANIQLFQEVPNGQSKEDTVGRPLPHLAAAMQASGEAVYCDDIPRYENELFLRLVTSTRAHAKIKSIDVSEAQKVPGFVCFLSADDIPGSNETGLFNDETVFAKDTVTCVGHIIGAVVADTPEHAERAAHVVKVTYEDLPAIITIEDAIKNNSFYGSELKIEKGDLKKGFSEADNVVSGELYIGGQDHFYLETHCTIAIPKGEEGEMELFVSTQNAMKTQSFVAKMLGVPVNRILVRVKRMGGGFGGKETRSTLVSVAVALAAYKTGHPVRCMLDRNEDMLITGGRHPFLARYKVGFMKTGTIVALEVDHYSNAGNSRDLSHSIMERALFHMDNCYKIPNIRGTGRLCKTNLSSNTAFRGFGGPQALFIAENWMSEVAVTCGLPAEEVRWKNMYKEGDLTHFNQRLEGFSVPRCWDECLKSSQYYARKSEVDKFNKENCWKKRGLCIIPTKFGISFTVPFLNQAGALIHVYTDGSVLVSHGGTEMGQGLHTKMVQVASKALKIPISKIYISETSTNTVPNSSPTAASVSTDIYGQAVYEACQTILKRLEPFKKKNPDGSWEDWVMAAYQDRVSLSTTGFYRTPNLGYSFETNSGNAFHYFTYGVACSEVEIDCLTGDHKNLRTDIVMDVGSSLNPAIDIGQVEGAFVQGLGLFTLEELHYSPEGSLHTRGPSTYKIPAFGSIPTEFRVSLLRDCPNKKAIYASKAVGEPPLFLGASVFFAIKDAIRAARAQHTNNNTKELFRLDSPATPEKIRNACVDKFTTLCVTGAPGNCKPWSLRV
Chain of XDH (P80457 whole entry): as above

What is called Ki is the dissociation constant of the complex between target and ligand, obtained from inhibition or displacement. With `Oc1ncnc2[nH]ncc12` [Allopurinol], in data set [1] (3 mg/kg intraperitoneal), the “plasma hypoxanthine levels vs control” value is on record as “significantly increased plasma hypoxanthine levels” and the “plasma xanthine levels vs control” value is listed as “xanthine levels were largely unaffected”. Moreover, the “plasma uric acid levels compared to the control group” value in data set [1] (setting [3]) was “significantly decreased plasma uric acid levels”. For the same molecule, in data set [1] (setting [4]), the allopurinol in plasma result was “little allopurinol was detected in the plasma” and the oxypurinol in plasma entry was “a small amount of oxypurinol was also observed”. Besides, the “concentration above which NADH formation is immediately inhibited” value at XDH is recorded as “Above 5 μM”. Also, the Ki in data set [2] was over 200 µM.

Consider `O=c1[nH]c(=O)c2c[nH]nc2[nH]1` [Oxypurinol], for which the “plasma hypoxanthine levels vs control” value in data set [1] (3 mg/kg intraperitoneal) and in data set [1] (10 mg/kg intraperitoneal) was “neither hypoxanthine nor xanthine concentrations were significantly different from the control group” each time. Besides, the “plasma xanthine levels vs control” value in data set [1] (3 mg/kg intraperitoneal) and in data set [1] (10 mg/kg intraperitoneal) was “neither hypoxanthine nor xanthine concentrations were significantly different from the control group” throughout. Further, the “plasma uric acid levels compared to the control group” value in data set [1] (setting [3]) is given as “did not significantly reduce plasma uric acid levels”. Moreover, the “plasma uric acid levels” value in data set [1] (10 mg/kg intraperitoneal, 1 h after administration, oxonate-treated mice) is “reduce plasma uric acid to that seen with 3 mg/kg allopurinol”. The molecule also registered an inhibition constant (Ki) on XO of 6.35 ± 0.96 µM. Further, on XO (XO, substrate xanthine, O2, 295 nm), the Types of inhibition entry is “Competitive”. The “Ki for oxypurinol relative to Ki for allopurinol” value on XO (both XO and XDH, allopurinol Ki ref 19) is on record as “about 10 fold”.
